Where two headings read alike, the source gives them in different places.
What was measured:
SARS-CoV-2 [1] = assay: microbe, parasite or virus in culture; format: cell-based, SARS-CoV-2 isolate BetaCov/Belgium/GHB-03021/2020; details: for EC50: read-out: EC50 (anti-SARS-CoV-2 activity); for IC50: Severe acute respiratory syndrome coronavirus 2
in vitro = details: African green monkey
Vero-E6 cells = details: for CC50: single experiment (duplicate experiments listed)
Vero-E6 = system: Vero-E6; set-up: method as in Ren et al. [33]; details: ref Ren et al. [33]; cited from earlier work
[2] = set-up: method as in Zhang et al. [31]; details: ref Zhang et al. [31]; cited from earlier work
SARS-CoV-2 [3] = system: SARS-CoV-2; set-up: method as in Zhang et al. [31]; details: RT-PCR read-out after 18–24 h; ref Zhang et al. [31]; read-out: EC50 (anti-SARS-CoV-2 activity); cited from earlier work
HEK293 = system: HEK293; set-up: method as in Jin et al. [32]; details: on HEK293; ref Jin et al. [32]; cited from earlier work
HEK293T = system: HEK293T; set-up: method as in Ren et al. [33]; details: ref Ren et al. [33]; cited from earlier work
Huh-7 = system: Huh-7; set-up: method as in Ren et al. [33]; details: ref Ren et al. [33]; cited from earlier work
SARS-CoV-2 [4] = system: SARS-CoV-2; set-up: method as in Jin et al. [32]; details: in Vero cells; ref Jin et al. [32]; read-out: EC50 (anti-SARS-CoV-2 activity); cited from earlier work
SARS-CoV-2 [5] = system: SARS-CoV-2; set-up: method as in Ren et al. [33]; details: in the Vero-E6 cell; ref Ren et al. [33]; read-out: EC50 (anti-SARS-CoV-2 activity); cited from earlier work
[6] = Severe acute respiratory syndrome coronavirus 2, 96 h
[7] = CC50 (cytotoxicity on Vero-E6 cells), MTS-assay, absence of virus
[8] = CC50 (µM), single experiment (duplicate experiments listed), Vero-E6 cells
[9] = av. CC50 (µM), average of two experiments, Vero-E6 cells

COc1cc2c(cc1O)[C@@H]1[C@H](O)[C@H](O)C=C3CCN(C2)[C@H]31 (racemic) [Compounds 2 and 3, (±)-2-epi-pseudolycorine]
antiviral activity against SARS-CoV-2 (in words) (SARS-CoV-2 [1]): loss of the antiviral activity | EC50 (SARS-CoV-2 [1]; [6]): > 100 µM | IC50 (SARS-CoV-2 [1]; read-out: IC50): > 100 µM | IC50 (SARS-CoV-2 [1]; read-out: av. IC50): > 100 µM | CC50 (in vitro; [7]): > 100 µM | CC50 (in vitro; [8]): > 100 µM | CC50 (in vitro; [9]): > 100 µM

COc1cc2c(cc1O)C1C(O)C(O)C=C3CCN(C2)C31 (single isomer, unassigned; (+)) [Compound 3, (+)-2-epi-pseudolycorine]
antiviral activity against SARS-CoV-2 (in words) (SARS-CoV-2 [1]): lacked antiviral activity | cytotoxicity on Vero-E6 cells (in words) (Vero-E6 cells): lacked antiviral activity, as well as cytotoxicity

Oc1ccc2c3c1OC1CC(O)CCC31CCNC2 (stereo not drawn) [Compound 1, O-demethyl-norlycoramine]
EC50 (SARS-CoV-2 [1]; [6]): 45 µM | IC50 (SARS-CoV-2 [1]; read-out: IC50): 54 µM | IC50 (SARS-CoV-2 [1]; read-out: av. IC50): 45.8 µM | CC50 (in vitro; [7]): > 100 µM | CC50 (in vitro; [8]): > 100 µM | CC50 (in vitro; [9]): > 100 µM

COc1cc2c(cc1O)[C@@H]1[C@H](O)[C@H](O)C=C3CCN(C2)[C@H]31 [Compound 2, (−)-2-epi-pseudolycorine]
antiviral activity against SARS-CoV-2 (in words) (SARS-CoV-2 [1]): lacked antiviral activity | cytotoxicity on Vero-E6 cells (in words) (Vero-E6 cells): lacked antiviral activity, as well as cytotoxicity

COc1cc2c(c(O)c1OC)[C@]13CC[C@H](OC)C[C@H]1N(CC3)[C@@H]2O [Compound 4, 6α-hydroxyhippeastidine]
EC50 (SARS-CoV-2 [1]; [6]): 44 µM | CC50 (in vitro; [7]): > 100 µM

COc1cc2c(c(O)c1OC)[C@]13CC[C@H](OC)C[C@H]1N(CC3)[C@H]2O [Compound 5, 6β-hydroxyhippeastidine]
EC50 (SARS-CoV-2 [1]; [6]): 44 µM | CC50 (in vitro; [7]): > 100 µM

O[C@H]1[C@H]2c3cc4c(cc3CN3CCC(=C[C@@H]1O)[C@H]23)OCO4 [Compound 6, lycorine]
CC50 (Vero-E6): > 1000 µM | CC50 [2]: > 40 µM | EC50 (SARS-CoV-2 [3]): 0.18 µM | CC50 (HEK293): > 10 µM | CC50 (HEK293T): 1.04 ± 0.0734 µM | CC50 (Huh-7): 0.834 ± 0.063 µM | antiviral activity against SARS-CoV-2 (in words) (SARS-CoV-2 [1]): lacked selective antiviral activity | EC50 (SARS-CoV-2 [1]; [6]): > 100 µM | IC50 (SARS-CoV-2 [1]; read-out: IC50): > 100 µM | IC50 (SARS-CoV-2 [1]; read-out: av. IC50): > 100 µM | CC50 (in vitro; [7]): 1.2 µM | CC50 (in vitro; [8]): 1.28 µM | CC50 (in vitro; [9]): 1.21 µM | EC50 (SARS-CoV-2 [4]): 0.878 ± 0.022 µM | EC50 (SARS-CoV-2 [5]): 0.439 ± 0.122 µM | CC50 (Vero-E6 cells): 1.14 µM

O[C@H]1[C@H]2c3cc4c(cc3CN3CCC(=C[C@H]1O)[C@H]23)OCO4 [Compound 7, 2-epi-lycorine]
EC50 (SARS-CoV-2 [1]; [6]): 54 µM | IC50 (SARS-CoV-2 [1]; read-out: IC50): 69.3 µM | IC50 (SARS-CoV-2 [1]; read-out: av. IC50): 54.2 µM | CC50 (in vitro; [7]): > 100 µM | CC50 (in vitro; [8]): > 100 µM | CC50 (in vitro; [9]): > 100 µM

O[C@H]1[C@H]2c3cc4c(cc3CN3CCC(C[C@H]1O)[C@H]23)OCO4 (stereo partly drawn) [Compound 8, zephyranthine]
EC50 (SARS-CoV-2 [1]; [6]): 40 to 77 µM | IC50 (SARS-CoV-2 [1]; read-out: IC50): 37.1 µM | IC50 (SARS-CoV-2 [1]; read-out: av. IC50): 39.6 µM | EC50 (SARS-CoV-2 [1]): 39 µM | CC50 (in vitro; [7]): > 100 µM | CC50 (in vitro; [8]): > 100 µM | CC50 (in vitro; [9]): > 100 µM

[O-]c1cc2c3c(c1)c1cc4c(cc1c[n+]3CC2)OCO4 [Compound 9, ungeremine]
antiviral activity against SARS-CoV-2 (in words) (SARS-CoV-2 [1]): lacked antiviral activity | EC50 (SARS-CoV-2 [1]; [6]): > 100 µM | IC50 (SARS-CoV-2 [1]; read-out: IC50): > 100 µM | IC50 (SARS-CoV-2 [1]; read-out: av. IC50): > 100 µM | antiviral activity against SARS-CoV-2 (in words) (SARS-CoV-2 [1]; listed as ungeremine): did not improve its anti-SARS-CoV-2 potency | CC50 (in vitro; [7]): > 100 µM | CC50 (in vitro; [8]): > 100 µM | CC50 (in vitro; [9]): > 100 µM | cytotoxicity on Vero-E6 cells (in words) (Vero-E6 cells): lacked antiviral activity, as well as cytotoxicity | cytotoxicity on Vero-E6 cells (in words) (Vero-E6 cells; listed as ungeremine): eliminated cytotoxicity on the Vero-E6 cell line

O=C1N[C@H]2[C@H](O)[C@H](O)[C@@H](O)[C@H](O)[C@@H]2c2cc3c(c(O)c21)OCO3 [Compound 10, pancratistatin]
antiviral activity against SARS-CoV-2 (in words) (SARS-CoV-2 [1]): lacked selective antiviral activity | IC50 (SARS-CoV-2 [1]; read-out: IC50): > 100 µM | IC50 (SARS-CoV-2 [1]; read-out: av. IC50): > 100 µM | CC50 (in vitro; [7]): 0.13 µM | CC50 (in vitro; [8]): 0.14 µM | CC50 (Vero-E6 cells): 0.122 µM

COc1cc2c(cc1O)[C@@H](OC)O[C@@H]1CC=C3CCN(C)[C@H]3[C@H]21 [Compound 11, 9-O-demethyl-7-O-methyllycorenine]
EC50 (SARS-CoV-2 [1]; [6]): 40 to 77 µM | IC50 (SARS-CoV-2 [1]; read-out: IC50): 99.4 µM | IC50 (SARS-CoV-2 [1]; read-out: av. IC50): 77.2 µM | CC50 (in vitro; [7]): > 100 µM | CC50 (in vitro; [8]): > 100 µM | CC50 (in vitro; [9]): > 100 µM
